GI50 and TGI data for 9 molecules are collected here from PubChem BioAssay (NCI).

Several values for one entry are separate records, joined by “and”; a condition that tells them apart may be missing. Identical values can stand only once.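 Tested at 5 concentrations; 48 h exposure; 96-well plates; endpoints linearly interpolated, else capped at highest concentration. At the GI50, growth is halved. Definition used: TGI = concentration required for complete inhibition of growth.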

Assay in all cases: NCI tumour cell line growth inhibition, 48 h
Assay [1] relates to DU-145 prostate.
Assay [2] has as its system KM12 colon.
Assay [3] deals with MDA-MB-435.
For assay [4], the system named is NCI-H23 lung.
In assay [5] the test system is OVCAR-8 ovarian.
For assay [6], the system named is SF-268 CNS.
Assay [7] relates to SF-295 CNS.
Assay [8] deals with SW-620 colon.
Assay [9] has as its system UACC-257 melanoma.
For assay [10], the system named is UACC-62 melanoma.

Turning to `N=c1ccc2nc3c(cc(N)c4ccccc43)oc-2c1`, the GI50 in [1] was 265 nM; in assay [2] it was 236 nM; in assay [3] it was 182 nM; in [4] it was 179 nM; in assay [5], 457 nM; in [6] it was 431 nM. The GI50 in assay [7] is 199 nM; in assay [8] it was 252 nM; in assay [9], 271 nM; in [10] it was 197 nM. Moreover, the TGI in assay [1] was found to be 692 nM; in [2] it was 845 nM; in assay [3], 338 nM; in assay [4], 523 nM; in [5], 3280 nM; in assay [6], 1750 nM. Moreover, the TGI in assay [7] was found to be 599 nM; in [8] it was 754 nM; in assay [9], 819 nM; in assay [10] it was 539 nM.

For the molecule `Cc1ccc2sc3ccc(N)cc3c(=O)c2c1`, the TGI in assay [1], in [2], in assay [3], in assay [4], in assay [5] and in [6] was greater than 100000 nM in each case. Further, the TGI in assay [7], in [8], in assay [9] and in assay [10] was greater than 100000 nM each time.

As for `Nc1cc2[nH]cnc2c(=O)[nH]1`, the TGI in assay [1], in assay [2], in [3], in [4], in [5] and in [6] was greater than 300000 nM each time. Besides, the TGI in [7], in assay [8], in assay [9] and in assay [10] was greater than 300000 nM throughout.

For the molecule `COc1cc2c3c(c1OC)C1(C=CC(=O)C=C1)CC3NCC2` (stereo not given), the TGI in assay [1], in assay [2], in [3], in [4], in assay [5] and in [6] was greater than 100000 nM throughout. Besides, the TGI in assay [7], in assay [8], in assay [9] and in assay [10] was greater than 100000 nM each time.

`Oc1c(CN2CCCC2)cc(CSCc2ccccc2)c2cccnc12`: the GI50 in [1] is 1280 nM; in assay [2], 635 nM; in assay [3], 1400 nM; in [4], 1310 nM; in assay [5], 462 nM; in assay [6], 752 nM. Also, the GI50 is 2190 nM in assay [7], 797 nM in assay [8], 2140 nM in assay [9] and 363 nM in [10]. Further, the TGI stood at 10700 nM in assay [1]; 11900 nM in assay [2]; 13600 nM in assay [3]; 5120 nM in assay [4]; 9790 nM in [5]; 14900 nM in [6]. In addition, the TGI in [7] turned out to be 8130 nM; in assay [8], 11200 nM; in assay [9] it was 7030 nM; in assay [10] it was 2290 nM.

As to `CCC[CH2][Sn]1([CH2]CCC)[O]C(=O)c2ccc(N)cc2[O]1`, the GI50 in assay [1] was 1260 nM; in [2] it was 1240 nM; in assay [3], 1580 nM; in assay [4], 336 nM; in assay [5], 909 nM; in [6], 259 nM. The GI50 in assay [7] was 1410 nM; in assay [8], 224 nM; in assay [9], 548 nM; in [10], 364 nM. The TGI came to 2520 nM in [1]; 2590 nM in [2]; 3080 nM in assay [3]; 1610 nM in assay [4]; 2490 nM in assay [5]; 1500 nM in assay [6]. Besides, the TGI is 2760 nM in [7], 1090 nM in assay [8], 2110 nM in assay [9] and 1830 nM in [10].

In the case of `CC[C@]1(O)C[C@@H]2CN(CCc3c([nH]c4ccccc34)[C@@](C(=O)OC)(c3cc4c(cc3OC)N(C)[C@H]3[C@@](O)(C(N)=O)[C@H](O)[C@]5(CC)[C@@H]6C[C@@H]6CN6CC[C@]43[C@@H]65)C2)C1`, the GI50 is less than 3.33 nM in [1]; less than 3.33 nM in assay [2]; less than 3.33 nM in assay [3]; less than 3.33 nM in assay [4]; 14.3 nM in assay [5]; 3.52 nM in assay [6]. Besides, the GI50 is 4.41 nM in assay [7], less than 3.33 nM in assay [8], greater than 33300 nM in assay [9] and less than 3.33 nM in [10]. Also, the TGI is 795 nM in [1]; greater than 29800 nM in assay [2]; less than 3.33 nM in assay [3]; greater than 33300 nM in assay [4]; greater than 33300 nM in [5]; greater than 33300 nM in [6]. Besides, the TGI in [7] was 2090 nM; in [8] it was greater than 33300 nM; in assay [9] it was greater than 33300 nM; in [10], greater than 33300 nM.

Turning to `Cc1cnc(Nc2ccc(OCCN3CCCC3)cc2)nc1Nc1cccc(S(=O)(=O)NC(C)(C)C)c1`, the GI50 in assay [1] is 252 nM and 1160 nM; in [2] it was 361 nM; in assay [3], 121 nM and 1140 nM; in [4], 307 nM and 1920 nM; in assay [5], 666 nM and 2660 nM; in [6], 1690 nM and 1670 nM. The GI50 is 304 nM and 2570 nM in assay [7]; 228 nM and 946 nM in assay [8]; 1280 nM and 3990 nM in assay [9]; 491 nM and 1920 nM in [10]. The TGI in assay [1] is 13600 nM and > 10000 nM; in assay [2], 8720 nM and > 10000 nM; in assay [3], 11900 nM and > 10000 nM; in assay [4], 7050 nM and > 10000 nM; in assay [5] it was 9030 nM and > 10000 nM; in assay [6], 7520 nM and > 8990 nM. Moreover, the TGI in assay [7] is 12400 nM and > 10000 nM; in assay [8] it was 3540 nM and > 7420 nM; in assay [9] it was 2830 nM and > 10000 nM; in [10], 8140 nM and > 10000 nM.

Consider `C/C=C(/C)c1cnc(CC(C)C)c(=O)[nH]1`, for which the TGI in assay [1], in assay [2], in assay [3], in assay [4], in assay [5] and in assay [6] was greater than 100000 nM in each case. Moreover, the TGI in assay [7], in assay [8], in assay [9] and in assay [10] was greater than 100000 nM in each case.
